Results from US20260085101A1, “NOVEL PLATELET DERIVED GROWTH FACTOR PEPTIDE MIMETIC” (THE UNIVERSITY OF SYDNEY, priority 2022, published 2026).

Key:
Type in all cases: cell-based
[1] = system: C2C12 mouse myoblasts; experiment: Scratch migration (chemotaxis) assay on C2C12 cells; settings: for migration of cells across the scratch: 24 hours at 37° C., 10 ng/ml PDGF, 1 μg/ml peptides, mean (±SD); for increase in migration compared to the negative control (Mean Diff) / increase in migration compared to the no treatment control (Mean Diff.): 24 hours; for increase in migration compared to the negative control (Mean Diff): vs AG1296+PDGF−AB negative control; for increase in migration compared to the no treatment control (Mean Diff.): vs no treatment control
Description: FIG. 2. Migration of C2C12 Mouse […] Cells Treated with PDGF and peptides JC5 and JC5a. C2C12 mouse fibroblast cells migrate across the scratch over 24 hours. Cells were treated with 10 ng/ml PDGF−AB (n=6), PDGF−BB (n=6), and 1 μg/ml of novel PDGF mimetic JC5 (n=6) and JC5a (n=3). […] There was also no statistically significant difference between the PDGF mimetic peptides and PDGF−AB and −BB positive controls. Error bars represent ±SD. The function of Compounds Ia (also referred to herein as JC5) and Ib (also referred to herein as JC5a) has been tested in vitro on the continuous cell line, C2C12 mouse myoblasts. In these in vitro assays recombinant PDGF−AB and −BB have been used as positive controls along with a serum starved no treatment control and the PDGF receptor inhibitor AG1296 co-treated with PDGF−AB as a negative control. The in vitro assays were designed to assess the major known functions of PDGF whilst also considering functions that are relevant to its in vivo applications. These functions were chemotaxis, collagen contraction, vascular tube formation and activation of the PDGF receptors via phosphorylation of Akt and Erk. Chemotaxis was assessed by making a scratch through a 2D culture of C2C12 cells following treatment with the four controls and the peptides JC5 and JC5a. They were then incubated for 24 hours at 37° C. Migration of the cells across the scratch at the conclusion of the incubation was measured and compared to the relevant controls described above. PDGF is a well-established mediator of chemotaxis and is expected to increase migration of the cells across the scratch over the course of 24 hours post treatment.

[2] = target: T1, PDGF receptor (Mus musculus, UniProt P05622); experiment: Western blot for phosphorylation of ERK in C2C12 cells (PDGF receptor activation); settings: for phosphorylation of ERK (pERK): 10 ng/ml PDGF, 1 μg/ml peptide, vs no treatment and AG1296+PDGF−AB controls
T1 construct: Phosphorylation of ERK following treatment of C2C12 Cells with PDGF and JC5; endogenous in cells; host or cells: C2C12 mouse myoblasts
T1 sequence (P05622 32-1098): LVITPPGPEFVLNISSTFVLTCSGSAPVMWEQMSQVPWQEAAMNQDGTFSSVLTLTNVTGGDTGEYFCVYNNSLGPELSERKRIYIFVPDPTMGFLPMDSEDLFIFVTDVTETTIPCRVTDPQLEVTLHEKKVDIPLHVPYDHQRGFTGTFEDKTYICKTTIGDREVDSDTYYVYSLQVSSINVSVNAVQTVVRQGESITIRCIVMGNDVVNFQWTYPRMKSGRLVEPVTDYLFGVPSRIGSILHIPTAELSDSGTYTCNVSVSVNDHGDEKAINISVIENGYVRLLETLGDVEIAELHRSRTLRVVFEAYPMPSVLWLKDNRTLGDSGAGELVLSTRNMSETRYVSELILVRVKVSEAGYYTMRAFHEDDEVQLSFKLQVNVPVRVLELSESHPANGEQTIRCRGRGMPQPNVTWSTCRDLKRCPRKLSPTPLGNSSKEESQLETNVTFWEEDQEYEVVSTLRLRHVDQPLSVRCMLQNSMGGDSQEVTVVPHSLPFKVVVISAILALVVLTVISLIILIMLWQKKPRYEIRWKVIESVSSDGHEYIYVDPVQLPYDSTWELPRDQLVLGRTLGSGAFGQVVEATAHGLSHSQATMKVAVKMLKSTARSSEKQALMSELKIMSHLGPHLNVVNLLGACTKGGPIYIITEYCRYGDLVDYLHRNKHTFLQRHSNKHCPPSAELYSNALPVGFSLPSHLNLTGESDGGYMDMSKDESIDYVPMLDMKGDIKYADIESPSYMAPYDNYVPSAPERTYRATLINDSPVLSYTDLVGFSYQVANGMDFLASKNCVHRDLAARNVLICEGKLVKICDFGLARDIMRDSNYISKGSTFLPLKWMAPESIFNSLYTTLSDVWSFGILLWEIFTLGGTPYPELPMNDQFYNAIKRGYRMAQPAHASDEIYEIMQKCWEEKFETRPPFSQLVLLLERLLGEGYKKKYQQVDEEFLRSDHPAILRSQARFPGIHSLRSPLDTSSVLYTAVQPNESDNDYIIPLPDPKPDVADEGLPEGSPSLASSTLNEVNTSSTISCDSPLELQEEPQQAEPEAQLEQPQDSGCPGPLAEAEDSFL
Description: FIG. 5. Phosphorylation of ERK following treatment of C2C12 Cells with PDGF and JC5. Western blots for total (ERK) and phosphorylated ERK (pERK) at 42 and 44 kDa show an increase in phosphorylation following treatment with 10 ng/ml PDGF−BB and 1 μg/ml of JC5. FIG. 6. Phosphorylation of ERK following treatment of C2C12 Cells with PDGF and JC5a. Western blots for total (ERK) and phosphorylated ERK (pERK) at 42 and 44 kDa show an increase in phosphorylation 10 minutes post treatment with 10 ng/ml PDGF−BB and 1 μg/ml of novel mimetic peptide JC5a. JC5a maintained this increased phosphorylation of ERK at 30 minutes post treatment. PDGF receptor activation takes place via autophosphorylation of tyrosine […] residues at key sites throughout the intracellular domain. Autophosphorylation engages different signaling pathways, including ERK (MAPK) which participates in proliferation, cell survival, angiogenesis, and chemotactic activity of cells. Phosphorylation of ERK indicates successful activation of the PDGF receptor.

[3] = system: primary human coronary artery endothelial cells (HCAECs); experiment: Vascular tube forming assay on Geltrex; settings: 24 hours; for tube length: 50 ng/ml PDGF, 5 μg/ml JC5, 10 μM AG1296, mean (±SD); for increased tube length compared to the negative control (Mean Diff.): vs AG1296+PDGF−AB (307.7 μm); for increased tube length compared to the no treatment control (Mean Diff.): vs no treatment control (305 μm)
Description: FIG. 4. Tube formation of Human Coronary Artery Endothelial Cells Treated with PDGF and PDGF Mimetic Peptide JC5. Human coronary artery endothelial cells treated with 50 ng/ml of PDGF−AB and PDGF−BB produced longer tubes than untreated cells and cells treated with the PDGF receptor inhibitor AG1296+PDGF−AB. […] Error bars represent ±SD, n=3/group.
PDGF has a well-established role in angiogenesis in vivo. To simulate this function in vitro a vascular tube forming assay on primary human coronary artery endothelial cells (HCAECs) was carried out. Cells were seeded on top of 3D growth factor reduced Geltrex basement membrane extract and incubated for 24 hours following treatment with the PDGF−AB, PDGF-BB, no treatment control, AG1296+PDGF−AB negative control, and peptides JC5 and JC5a. Over the course of 24 hours the cells form tubes throughout the gel. PDGF is reported to facilitate tube formation of endothelial cells in in vitro 3D assays.
Cells treated with 50 ng/ml of PDGF−AB, PDGF-BB, and 5 μg/ml of JC5 produced longer more uniform tubes than untreated cells and cells treated with the negative control 10 μM PDGF receptor inhibitor AG1296 co-treated with 50 ng/ml PDGF−AB (FIG. 4). The positive controls PDGF−AB and PDGF−BB produced tubes that were 560.7 μm (±53.93) and 616.3 μm (±39.07), respectively. […] The no treatment control and AG1296+PDGF−AB negative control produced tubes that were 305 μm and 307.7 μm, respectively. […] In summary, JC5 has similar vascular tube forming ability to recombinant human PDGF−AB and PDGF-BB.

Molecule	migration of cells across the scratch [1]	increase in migration compared to the negative control (Mean Diff) [1]	increase in migration compared to the no treatment control (Mean Diff.) [1]	phosphorylation of ERK (pERK) [2]	phosphorylation of ERK (pERK) at 30 minutes post treatment ([2]; 1 μg/ml JC5a, 30 minutes)	tube length [3]	increased tube length compared to the negative control (Mean Diff.) [3]	increased tube length compared to the no treatment control (Mean Diff.) [3]
CCCCCCCCCCCCCCCC(=O)NCCCC[C@H](NC(=O)[C@H](CCC(=O)O)NC(=O)[C@H](Cc1ccc(O)cc1)NC(=O)[C@@H](CCC(=O)O)NC(=O)CCOCCOCCOCCNC(=O)CCOCCOCCOCCNC(=O)[C@@H](CCCCN)NC(=O)[C@@H](CCCCN)NC(=O)[C@@H](CCCNC(=N)N)NC(=O)[C@@H](NC(=O)[C@@H](NC(=O)[C@H](CCC(=O)O)NC(=O)[C@@H](NC(=O)[C@H](CCCCN)NC(=O)[C@@H](CCCNC(=N)N)NC(=O)[C@H](NC(=O)[C@H](N)CSSC[C@@H](N)C(=O)N[C@@H](C(=O)N[C@H](CCCNC(=N)N)C(=O)N[C@@H](CCCCN)C(=O)N[C@H](C(=O)N[C@@H](CCC(=O)O)C(=O)N[C@H](C(=O)N[C@H](C(=O)N[C@H](CCCNC(=N)N)C(=O)N[C@H](CCCCN)C(=O)N[C@H](CCCCN)C(=O)NCCOCCOCCOCCC(=O)NCCOCCOCCOCCC(=O)N[C@H](CCC(=O)O)C(=O)N[C@@H](Cc1ccc(O)cc1)C(=O)N[C@@H](CCC(=O)O)C(=O)N[C@@H](CCCCNC(=O)CCCCCCCCCCCCCCC)C(=O)N[C@@H](CCC(=O)O)C(=O)N[C@@H](Cc1ccc(O)cc1)C(=O)N[C@@H](CCC(=O)O)C(N)=O)C(C)C)[C@H](C)CC)[C@@H](C)CC)C(C)C)C(C)C)[C@@H](C)CC)[C@H](C)CC)C(C)C)C(=O)N[C@@H](CCC(=O)O)C(=O)N[C@@H](Cc1ccc(O)cc1)C(=O)N[C@@H](CCC(=O)O)C(N)=O [JC5a, PDGF Loop III dimer USA dimer (CVRKIEIVRKK)2(Peg3)2(EYEK(Palm)EYE)2-C′]	79.88%	62.71%	59.56%	phosphorylation of ERK (pERK) can be seen	preserved phosphorylation of ERK (pERK)	–	–	–
PDGF Loop III dimer HSA (CVRKIEIVRKK)2(Peg3)2EYEK(Palm)EYE-C′ [JC5]	68.28%	51.71%	47.96%	phosphorylation of ERK (pERK) can be seen	–	591.3 μm	283.7 μm	286.3 μm
PDGF−AB: recombinant human PDGF−AB, AB heterodimer of recombinant PDGF, positive control	–	–	–	pERK is induced by PDGF−BB but not PDGF−AB	–	560.7 μm	253 μm	255.7 μm
